This note sets out measurements from patent publication US20090215884A1, “METHOD FOR WOUND HEALING” (priority 2005, published 2009).

One assay has as its system keratinocytes. Nature of the assay: Cytokine production by PEP005-treated human keratinocytes. The settings on record: 6 h, supernatant. The class given is cell-based. On the procedure: (§1) Cytokine production by PEP005-treated human cells Confluent cultures of Me10538 cells, keratinocytes, fibroblasts and neutrophils were incubated for 6 h in the absence or presence of PEP005 (1-100 ng/ml). The supernatants were harvested and analyzed for the presence of the following cytokines; TNF-α, IL-6 and IL-8 using a multiplex detection kit (Biosource International, Nivelles, Belgium). Units of detected proteins are pg/ml.

The subject of the next assay is Me10538 cells. Nature of the assay: Cytokine production by PEP005-treated human melanoma cells. The class given is cell-based. The conditions noted are these: 6 h, supernatant. On the procedure:
as §1

Another assay deals with neutrophils. In words: Cytokine production by PEP005-treated human neutrophils. The conditions noted are these: 6 h, supernatant. The assay is classed as cell-based. On the procedure:
as §1

The subject of assay [1] is rat full-thickness incisional wounds. In words: Rat incisional wound healing model: tensiometric assessment of wound strength. The settings on record: single topical treatment. The assay is classed as in vivo. The source says:
In order to examine the effects of PEP005 on the repair of acute (surgical) incisional wounds, involving minimal new tissue generation, the rat, full-thickness incisional wound healing model, was employed.
Adult male Sprague Dawley rats (Harlan U.K. Ltd., Oxfordshire, U.K.), approximately 8-10 weeks old and weighing between 250-300 g, were used in this study. The animals were initially housed in groups of up to four per cage (cage dimensions 40×25×20 cm, with sawdust bedding, changed twice weekly), according to Home Office regulations, in an environment maintained at an ambient temperature of 23° C. with 12-hour light/dark cycles. The animals were provided food (Standard Rodent Diet) and water ad libitum. In order to acclimatize the animals to their surroundings, prior to experimentation, the animals were housed for a minimum of one week without disturbance, other than to refresh their bedding and to replenish their food and water provisions. Following wounding, animals were monitored under individual housed conditions until fully recovered from the procedure. Animals were then maintained individually for a period of 2 weeks (i.e. until their wounds have fully re-epithelialized). After this initial 2-week period, animals were maintained in groups of up to four for the remainder of the study. All animal procedures were performed in a Home Office licensed establishment, under U.K. Home Office Licences (PPL: 40/2650; PIL: 70/4934 and PIL: 60/7661).
Animals were anaesthetized using inhalation of Halothane and air, and the dorsum of each rat shaved and washed with the bactericide, chlorhexidine gluconate (0.05% aqueous). Four full-thickness incisional wounds (1 cm in length, include the panniculus carnosus and hypodermis) were created on the backs of each animal. Wounds remained unsutured (allowed to gape), in order to allow granulation tissue to form within the wounds. Following wounding (day 0), one of the four PEP005 concentrations (PEP005-free, DMSO/isopropanol gel vehicle, 0.01%, 0.028% or 0.05% PEP005) were applied to each wound, whilst non-treated wound controls remained untreated. […]
Immediately after injury, single treatments of the 0.01%, 0.028% PEP005, or DMSO/isopropanol vehicle gels, were applied at volumes of 10 μl per 100 mm^2 (1 μg/10 μl, 2.8 μg/10 μl and 5 μg/10 μl PEP005, respectively), to the marginal skin surrounding each wound, with a total area of 600 mm^2 of marginal skin receiving treatment. […] Rats were maintained in their respective experimental groups for 1, 4 and 12 weeks, when the animals in each group were euthanized and the condition of wound and peri-wound tissues (in terms of viability, erythema, oedema, etc.), monitored at all assessment points, according to Table 2.1. […]

Regarding `C/C=C(/C)C(=O)O[C@H]1C(C)=C[C@]23C(=O)[C@@H](C=C(CO)[C@@H](O)[C@]12O)[C@H]1[C@@H](C[C@H]3C)C1(C)C` [PEP005, ingenol-3-angelate], the IL-8 is 3910 ± 148 pg/mL in the assay on keratinocytes (PEP005 1 ng/ml); 4775 ± 178 pg/mL with keratinocytes (PEP005 5 ng/ml); 3895 ± 198 pg/mL in the assay on keratinocytes (PEP005 10 ng/ml); 2950 ± 108 pg/mL in the assay on keratinocytes (PEP005 100 ng/ml); less than 2 pg/mL in the assay on Me10538 cells (PEP005 1 ng/ml); 210 ± 6 pg/mL in the assay with Me10538 cells (PEP005 5 ng/ml). Besides, the IL-8 in the assay on Me10538 cells (PEP005 10 ng/ml) was determined as 737 ± 26 pg/mL; in the assay with Me10538 cells (PEP005 100 ng/ml), 390 ± 18 pg/mL; with neutrophils (PEP005 1 ng/ml), 7089 ± 1293 pg/mL; in the assay with neutrophils (PEP005 10 ng/ml), 2241 ± 684 pg/mL; in the assay on neutrophils (PEP005 100 ng/ml), 617 ± 52 pg/mL. Further, the TNFα with keratinocytes (PEP005 1 ng/ml) was found to be 510 ± 26 pg/mL; in the assay on keratinocytes (PEP005 5 ng/ml), 847 ± 37 pg/mL; in the assay with keratinocytes (PEP005 10 ng/ml), 498 ± 29 pg/mL; in the assay on keratinocytes (PEP005 100 ng/ml) it was 335 ± 21 pg/mL. In addition, the “mean tensile strength of wound” value in assay [1] (week 4, 0.01%, 0.028%, 0.05% PEP005 gel) is recorded as “dose dependent trend, with increasing tensile strength”; in assay [1] (week 12, 0.01% PEP005 gel), “increasing”; in assay [1] (week 12, 0.028% PEP005 gel), “declining at 0.028% to control levels”; in assay [1] (week 12, 0.05% PEP005 gel), “another increase”.
